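A five-concentration, 48-hour dose response in 96-well plates underlies each endpoint, interpolated linearly between surrounding concentrations. GI50 = concentration required for 50% inhibition of growth. TGI: concentration producing complete growth inhibition.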
Legend:
Assay in all cases: NCI anticancer screen, dose series, 48 h
M14 melanoma = system: M14 melanoma
T-47D breast = system: T-47D breast
SNB-75 CNS = system: SNB-75 CNS
MDA-MB-435 = system: MDA-MB-435
COLO 205 colon = system: COLO 205 colon
SW-620 colon = system: SW-620 colon
UACC-62 melanoma = system: UACC-62 melanoma
SK-MEL-2 melanoma = system: SK-MEL-2 melanoma
HCC-2998 colon = system: HCC-2998 colon
MALME-3M melanoma = system: MALME-3M melanoma
IGROV1 ovarian = system: IGROV1 ovarian
MDA-MB-231 breast = system: MDA-MB-231 breast
ACHN renal = system: ACHN renal
DU-145 prostate = system: DU-145 prostate
SF-539 CNS = system: SF-539 CNS
NCI-H522 lung = system: NCI-H522 lung
PC-3 prostate = system: PC-3 prostate
EKVX NSCLC = system: EKVX NSCLC
UACC-257 melanoma = system: UACC-257 melanoma
SR leukemia = system: SR leukemia
OVCAR-5 ovarian = system: OVCAR-5 ovarian
HOP-92 NSCLC = system: HOP-92 NSCLC
UO-31 renal = system: UO-31 renal
NCI-H226 lung = system: NCI-H226 lung
SK-MEL-5 melanoma = system: SK-MEL-5 melanoma
MCF7 breast = system: MCF7 breast
786-0 renal = system: 786-0 renal
HOP-62 NSCLC = system: HOP-62 NSCLC
K-562 leukemia = system: K-562 leukemia
CCRF-CEM leukemia = system: CCRF-CEM leukemia
SK-MEL-28 melanoma = system: SK-MEL-28 melanoma
KM12 colon = system: KM12 colon
MOLT-4 leukemia = system: MOLT-4 leukemia
OVCAR-8 ovarian = system: OVCAR-8 ovarian
CAKI-1 renal = system: CAKI-1 renal
HL-60(TB) leukemia = system: HL-60(TB) leukemia
SF-268 CNS = system: SF-268 CNS
HCT-116 colon = system: HCT-116 colon
A549 NSCLC = system: A549 NSCLC
HS 578T breast = system: HS 578T breast
OVCAR-3 ovarian = system: OVCAR-3 ovarian
NCI/ADR-RES ovarian = system: NCI/ADR-RES ovarian
TK-10 renal = system: TK-10 renal
SK-OV-3 ovarian = system: SK-OV-3 ovarian
HCT-15 colon = system: HCT-15 colon
RXF 393 renal = system: RXF 393 renal
SF-295 CNS = system: SF-295 CNS
BT-549 breast = system: BT-549 breast
RPMI-8226 leukemia = system: RPMI-8226 leukemia
LOX IMVI melanoma = system: LOX IMVI melanoma
SN12C renal = system: SN12C renal
A498 renal = system: A498 renal
SNB-19 CNS = system: SNB-19 CNS
HT29 colon = system: HT29 colon
NCI-H460 lung = system: NCI-H460 lung
U251 CNS = system: U251 CNS
OVCAR-4 ovarian = system: OVCAR-4 ovarian

Structure (SMILES): Cc1ccc(-c2nc(C(Cl)Cl)nc3cc(-c4ccccc4)nn23)cc1
- GI50 (M14 melanoma): 20.6 µM
- TGI (M14 melanoma): 50.2 µM
- GI50 (T-47D breast): 28.3 µM
- TGI (T-47D breast): > 100 µM
- GI50 (SNB-75 CNS): > 100 µM
- TGI (SNB-75 CNS): > 100 µM
- GI50 (MDA-MB-435): 25.3 µM
- TGI (MDA-MB-435): 98 µM
- GI50 (COLO 205 colon): 10.1 µM
- TGI (COLO 205 colon): 23.4 µM
- GI50 (SW-620 colon): 9.97 µM
- TGI (SW-620 colon): 55.8 µM
- GI50 (UACC-62 melanoma): 81.8 µM
- TGI (UACC-62 melanoma): > 100 µM
- GI50 (SK-MEL-2 melanoma): > 100 µM
- TGI (SK-MEL-2 melanoma): > 100 µM
- GI50 (HCC-2998 colon): 6.05 µM
- TGI (HCC-2998 colon): 20 µM
- GI50 (MALME-3M melanoma): 23.3 µM
- TGI (MALME-3M melanoma): 58.9 µM
- GI50 (IGROV1 ovarian): 36.3 µM
- TGI (IGROV1 ovarian): > 100 µM
- GI50 (MDA-MB-231 breast): 20.5 µM
- TGI (MDA-MB-231 breast): > 100 µM
- GI50 (ACHN renal): 7.54 µM
- TGI (ACHN renal): 31.8 µM
- GI50 (DU-145 prostate): 4.21 µM
- TGI (DU-145 prostate): 29.7 µM
- GI50 (SF-539 CNS): 61.1 µM
- TGI (SF-539 CNS): > 100 µM
- GI50 (NCI-H522 lung): 14.5 µM
- TGI (NCI-H522 lung): 42.8 µM
- GI50 (PC-3 prostate): 23.7 µM
- TGI (PC-3 prostate): > 100 µM
- GI50 (EKVX NSCLC): 17.8 µM
- TGI (EKVX NSCLC): 57.8 µM
- GI50 (UACC-257 melanoma): 35.3 µM
- TGI (UACC-257 melanoma): > 100 µM
- GI50 (SR leukemia): 9.91 µM
- TGI (SR leukemia): > 100 µM
- GI50 (OVCAR-5 ovarian): 24.2 µM
- TGI (OVCAR-5 ovarian): > 100 µM
- GI50 (HOP-92 NSCLC): 23.9 µM
- TGI (HOP-92 NSCLC): 79.4 µM
- GI50 (UO-31 renal): > 100 µM
- TGI (UO-31 renal): > 100 µM
- GI50 (NCI-H226 lung): 75.2 µM
- TGI (NCI-H226 lung): > 100 µM
- GI50 (SK-MEL-5 melanoma): > 100 µM
- TGI (SK-MEL-5 melanoma): > 100 µM
- GI50 (MCF7 breast): 18.1 µM
- TGI (MCF7 breast): > 100 µM
- GI50 (786-0 renal): > 100 µM
- TGI (786-0 renal): > 100 µM
- GI50 (HOP-62 NSCLC): 16.5 µM
- TGI (HOP-62 NSCLC): 62.3 µM
- GI50 (K-562 leukemia): 22.4 µM
- TGI (K-562 leukemia): > 100 µM
- GI50 (CCRF-CEM leukemia): 47.7 µM
- TGI (CCRF-CEM leukemia): > 100 µM
- GI50 (SK-MEL-28 melanoma): 27.2 µM
- TGI (SK-MEL-28 melanoma): 74.6 µM
- GI50 (KM12 colon): 17.8 µM
- TGI (KM12 colon): 66.4 µM
- GI50 (MOLT-4 leukemia): 18.2 µM
- TGI (MOLT-4 leukemia): 96.7 µM
- GI50 (OVCAR-8 ovarian): 15.3 µM
- TGI (OVCAR-8 ovarian): 90.1 µM
- GI50 (CAKI-1 renal): 16.2 µM
- TGI (CAKI-1 renal): 58.3 µM
- GI50 (HL-60(TB) leukemia): 6.5 µM
- TGI (HL-60(TB) leukemia): > 100 µM
- GI50 (SF-268 CNS): 24.6 µM
- TGI (SF-268 CNS): > 100 µM
- GI50 (HCT-116 colon): 15.6 µM
- TGI (HCT-116 colon): > 100 µM
- GI50 (A549 NSCLC): 10 µM
- TGI (A549 NSCLC): 28.1 µM
- GI50 (HS 578T breast): 56.9 µM
- TGI (HS 578T breast): > 100 µM
- GI50 (OVCAR-3 ovarian): 13.4 µM
- TGI (OVCAR-3 ovarian): 31.5 µM
- GI50 (NCI/ADR-RES ovarian): 13.5 µM
- TGI (NCI/ADR-RES ovarian): > 100 µM
- GI50 (TK-10 renal): 33.3 µM
- TGI (TK-10 renal): > 100 µM
- GI50 (SK-OV-3 ovarian): 20.9 µM
- TGI (SK-OV-3 ovarian): 58.7 µM
- GI50 (HCT-15 colon): 10.5 µM
- TGI (HCT-15 colon): 72.3 µM
- GI50 (RXF 393 renal): 10.6 µM
- TGI (RXF 393 renal): 24 µM
- GI50 (SF-295 CNS): 24 µM
- TGI (SF-295 CNS): 71.2 µM
- GI50 (BT-549 breast): 30.7 µM
- TGI (BT-549 breast): > 100 µM
- GI50 (RPMI-8226 leukemia): 35.9 µM
- TGI (RPMI-8226 leukemia): > 100 µM
- GI50 (LOX IMVI melanoma): 22.4 µM
- TGI (LOX IMVI melanoma): > 100 µM
- GI50 (SN12C renal): 98.9 µM
- TGI (SN12C renal): > 100 µM
- GI50 (A498 renal): 17.4 µM
- TGI (A498 renal): 38.9 µM
- GI50 (SNB-19 CNS): 19.7 µM
- TGI (SNB-19 CNS): > 100 µM
- GI50 (HT29 colon): 7.41 µM
- TGI (HT29 colon): 35.2 µM
- GI50 (NCI-H460 lung): 7.26 µM
- TGI (NCI-H460 lung): 30.3 µM
- GI50 (U251 CNS): 9.5 µM
- TGI (U251 CNS): 34.1 µM
- GI50 (OVCAR-4 ovarian): 17.9 µM
- TGI (OVCAR-4 ovarian): 73.1 µM
